The record followed here is article PMC8633584, “Patient mutations in human ATP:cob(I)alamin adenosyltransferase differentially affect its catalytic versus chaperone functions” (The Journal of Biological Chemistry, 2021).

Changes are numbered by the printed parent chain.

The target of assay [1] is T1, R190H ATR (Homo sapiens, UniProt Q96EY8, R190H).
T1 construct: The expression construct for recombinant human full-length and ΔN18 ATR in a pET-28b vector; His-tag (thrombin-cleavable) (N, cleaved yes); made in house; host or cells: E. coli BL21 (DE3)
T1 sequence (Q96EY8 38-250 R190H limits assumed): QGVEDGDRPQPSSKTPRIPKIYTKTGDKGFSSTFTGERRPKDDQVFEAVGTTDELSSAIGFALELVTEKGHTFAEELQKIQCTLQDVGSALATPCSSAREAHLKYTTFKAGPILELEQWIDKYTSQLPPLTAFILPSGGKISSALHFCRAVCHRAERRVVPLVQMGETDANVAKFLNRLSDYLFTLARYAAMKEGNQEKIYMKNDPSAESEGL
As to the kind of experiment: AdoCbl binding to ATR, UV-visible titration. The protocol:
(§1) Unless noted otherwise, all titration experiments were performed in buffer A. AdoCbl binding was monitored by adding increasing concentrations of WT or mutant ATR to 30 μM AdoCbl in buffer A at 20 °C. The spectrum was recorded 5 min after each addition. The concentration of bound AdoCbl was determined using […] = 8.0 cm^−1 mM^−1. The change in absorbance at 455 nm (corresponding to base-off AdoCbl bound to ATR) was plotted versus ATR concentration and fitted using the Dynafit software (BioKin) ([35]). Equation 1 (where A is the absorbance at 455 nm following each aliquot of ATR, ΔAmax is the maximal change in absorbance at 455 nm upon binding of AdoCbl to ATR, [E]t is the concentration of ATR active sites, and [L]t is the total AdoCbl concentration) was used to determine the dissociation constant for AdoCbl.(1) A=ΔAmax×([E]t+[L]t+Kd)+([E]t+[L]t+Kd)^2−4[L]t[E]t/2[L]t
(§2) The effect of PPPi on the KD for AdoCbl was determined by performing the above titration in the presence of 1 mM PPPi under anaerobic conditions.

For assay [2], the target named is T2, E193K ATR (Homo sapiens, UniProt Q96EY8, E193K).
T2 sequence (Q96EY8 38-250 E193K limits assumed): T1 sequence (Q96EY8 38-250 R190H limits assumed) with H153R, E156K
As to the kind of experiment: AdoCbl binding to ATR, UV-visible titration. Also on record: WT and the R190C variants of ΔN18-ATR and full-length E193K ATR were purified; His-tag (thrombin-cleavable) (N, cleaved yes); made in house; host or cells: E. coli BL21 (DE3). The method, then: as §1, §2

Assay [3] deals with T3, R190C ATR (Homo sapiens, UniProt Q96EY8, R190C).
T3 sequence (Q96EY8 38-250 R190C limits assumed): T1 sequence (Q96EY8 38-250 R190H limits assumed) with H153C
As to the kind of experiment: AdoCbl binding to ATR, UV-visible titration. On the set-up: The expression construct for recombinant human full-length and ΔN18 ATR in a pET-28b vector; His-tag (thrombin-cleavable) (N, cleaved yes); made in house; host or cells: E. coli BL21 (DE3). The method, then:
as §1, §2

In assay [4] the target is T4, WT ATR (Homo sapiens, UniProt Q96EY8).
T4 sequence (Q96EY8 38-250 limits assumed): T1 sequence (Q96EY8 38-250 R190H limits assumed) with H153R
As to the kind of experiment: AdoCbl binding to ATR, UV-visible titration. Also on record: The expression construct for recombinant human full-length and ΔN18 ATR in a pET-28b vector; His-tag (thrombin-cleavable) (N, cleaved yes); made in house; host or cells: E. coli BL21 (DE3). The method, then: as §1, §2

The target in assay [5] is T2, E193K ATR. As to conditions: 1.1:1.0:1.0 E193K ATR:AdoCbl:PPPi. The protocol:
(§3) The samples were prepared in an anaerobic chamber and contained: PPPi (1 mM), WT, R190C or E193K ATR (1.1 mM active sites), MgCl2 (2 mM), AdoCbl (1 mM) in 50 mM Hepes buffer pH 7.5 containing 150 mM KCl and 2 mM DTT at room temperature. The samples were transferred to 5-mm (internal diameter) NMR tubes (Wilmad-Glass), and the final volume was brought up to 0.4 ml with 90% water and 10% D2O (Cambridge Isotope Labs).
(§4) […] NMR spectra were collected at 242.5 MHz on a Bruker AVANCE NEO spectrometer equipped with a prodigy cryoprobe locked to D2O. All the NMR experiments were carried out at 25 °C using 12 μs 90° pulse widths, 8192 data points, and 4096 scans with 0.8 s recycle time. The chemical shifts were reported on proton-decoupled spectra by Gaussian line fits to the singlet resonances, relative to an external standard of 85% H3P0_4.

Assay [6] concerns the target T3, R190C ATR. As to conditions: 1.1:1.0:1.0 R190C ATR:AdoCbl:PPPi. The protocol: as §3, §4
Assay [7] addresses T4, WT ATR. As to conditions: WT ATR 1.1 mM active sites, PPPi 1 mM, no AdoCbl. The protocol:
as §3, §4

In assay [8] the target is T1, R190H ATR. As to the kind of experiment: AdoCbl synthesis, steady-state kinetics. The assay is classed as biochemical. The method, then: (§5) AdoCbl synthesis was determined by mixing cob(II)alamin (40 μM) in buffer A at 20 °C with ∼10 equivalents of titanium citrate under strictly anaerobic conditions. The reaction was started by addition of ATP (1 mM) and ATR (1 μM trimer concentration). The concentration of cob(I)alamin formed by reduction of cob(II)alamin was estimated using ε386nm = 28.0 cm^−1 mM^−1. The rate of AdoCbl synthesis was determined by measuring the change in absorbance at 522 nm using Δ ε522nm =5.06 mM^−1 cm^−1.

Assay [9] concerns the target T2, E193K ATR. As to the kind of experiment: AdoCbl synthesis, steady-state kinetics. The assay is classed as biochemical. Also on record: WT and the R190C variants of ΔN18-ATR and full-length E193K ATR were purified; His-tag (thrombin-cleavable) (N, cleaved yes); made in house; host or cells: E. coli BL21 (DE3). The method, then: as §5
Assay [10] addresses T3, R190C ATR. As to the kind of experiment: AdoCbl synthesis, steady-state kinetics. The assay is classed as biochemical. Also on record: The expression construct for recombinant human full-length and ΔN18 ATR in a pET-28b vector; His-tag (thrombin-cleavable) (N, cleaved yes); made in house; host or cells: E. coli BL21 (DE3). The method, then:
as §5

The target of assay [11] is T4, WT ATR. As to the kind of experiment: AdoCbl synthesis, steady-state kinetics. On the set-up: The expression construct for recombinant human full-length and ΔN18 ATR in a pET-28b vector; His-tag (thrombin-cleavable) (N, cleaved yes); made in house; host or cells: E. coli BL21 (DE3). In kind it is biochemical. The protocol: as §5

What is called Kd is the equilibrium constant for the complex coming apart. With `C/C1=C2/[N-][C@H]([C@H](CC(N)=O)[C@@]2(C)CCC(=O)NC[C@@H](C)OP(=O)([O-])O[C@H]2[C@@H](O)[C@@H](n3cnc4cc(C)c(C)cc43)O[C@@H]2CO)[C@]2(C)N=C(/C(C)=C3N=C(/C=C4N=C1[C@@H](CCC(N)=O)C\4(C)C)[C@@H](CCC(N)=O)[C@]\3(C)CC(N)=O)[C@@H](CCC(N)=O)[C@]2(C)CC(N)=O.[CH2-][C@H]1O[C@@H](n2cnc3c(N)ncnc32)[C@H](O)[C@@H]1O.[Co+3]` [AdoCbl, 5′-deoxyadenosylcobalamin], the Kd amounted to 13 ± 3 µM on R190H ATR [1] (1 mM PPPi, anaerobic); 50 ± 5 µM at R190H ATR [1] (without PPPi, buffer A, 20 °C); 100 ± 20 µM at E193K ATR [2] (1 mM PPPi, anaerobic); 120 ± 30 µM on E193K ATR [2] (without PPPi, buffer A, 20 °C); 4 ± 1 µM on R190C ATR [3] (1 mM PPPi, anaerobic); 40 ± 6 µM on R190C ATR [3] (without PPPi, buffer A, 20 °C). In addition, the dissociation constant (Kd) turned out to be 0.2 ± 0.1 µM at WT ATR [4] (1 mM PPPi, anaerobic) and 1 ± 0.3 µM on WT ATR [4] (without PPPi, buffer A, 20 °C). For the same compound, the “lower KD(AdoCbl) in the presence of PPPi” value at R190H ATR [1] (PPPi 1 mM) came to 3.9 fold; on R190C ATR [3] (PPPi 1 mM), 10 fold. For the same compound, the “effect of PPPi on KD for AdoCbl” value at E193K ATR [2] (PPPi 1 mM) is “no effect”. Besides, on WT ATR [4] (PPPi 1 mM), the “decrease of KD for AdoCbl by PPPi” value was found to be 5 fold.

As to `O=P(O)(O)OP(=O)(O)OP(=O)(O)O` [PPPi, inorganic triphosphate], the entries for the “PPPi binding by 31P NMR” value on E193K ATR [5], at R190C ATR [6] and at WT ATR [7] were “did not lead to detectable PPPi binding”, “did not lead to detectable PPPi binding” and “not bound to the protein”, respectively.

By kcat is commonly meant the number of substrate molecules converted per active site and unit of time at saturation. By Km is commonly meant the substrate concentration at which the rate is half of its maximum. `Nc1ncnc2c1ncn2[C@@H]1O[C@H](COP(=O)(O)OP(=O)(O)OP(=O)(O)O)[C@@H](O)[C@H]1O` [ATP]: the “lower activity (kcat) relative to WT ATR” value on R190H ATR [8] (R190H ATR vs WT) amounted to 115 fold; at R190C ATR [10] (R190C ATR vs WT), 16 fold. In addition, the kcat was found to be 0.0017 ± 0.0017 s⁻¹ on R190H ATR [8] (R190H ATR, AdoCbl synthesis, cob(II)alamin 40 μM, titanium citrate, anaerobic, 20 °C); 0.18 ± 0.01 s⁻¹ at E193K ATR [9] (E193K ATR, AdoCbl synthesis, cob(II)alamin 40 μM, titanium citrate, anaerobic, 20 °C); 0.012 ± 0.0017 s⁻¹ on R190C ATR [10] (R190C ATR, AdoCbl synthesis, cob(II)alamin 40 μM, titanium citrate, anaerobic, 20 °C); 0.192 ± 0.0267 s⁻¹ on WT ATR [11] (AdoCbl synthesis, cob(II)alamin 40 μM, titanium citrate, anaerobic, 20 °C). For the same compound, the “increase of KM for ATP relative to WT ATR” value at E193K ATR [9] (E193K ATR vs WT) came out at 52 fold; at R190C ATR [10] (R190C ATR vs WT), 20 fold. Moreover, the Michaelis constant (Km) on E193K ATR [9] (E193K ATR, read-out: KM (ATP)) turned out to be 235 ± 16 µM; on R190C ATR [10] (R190C ATR, read-out: KM (ATP)), 92 ± 31 µM; on WT ATR [11] (read-out: KM (ATP)), 4.5 ± 1.1 µM.
